Reference: ChEMBL document CHEMBL1201862, “PubChem BioAssay data set” (2004)
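How tested: cells in 96-well plates exposed to compound for 48 hours at five concentrations. GI50 marks 50% less growth.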 The source made the active and inactive calls. Cut-off read from the data, not from the text of the source: active = GI50 up to about 1.1 µM and inactive = higher.

Key:
Assay in all cases: NCI anticancer screen, dose series, 48 h
SF-539 = test system: SF-539
DLD-1 = test system: DLD-1
M14 = test system: M14
OVCAR-5 = test system: OVCAR-5
SK-OV-3 = test system: SK-OV-3
A549 = test system: A549
MOLT-4 = test system: MOLT-4
RXF 393 = test system: RXF 393
NCI-H226 = test system: NCI-H226
COLO 205 = test system: COLO 205
SR = test system: SR
SF-295 = test system: SF-295
KM-20L2 = test system: KM-20L2
IGROV-1 = test system: IGROV-1
OVCAR-3 = test system: OVCAR-3
U-251 = test system: U-251
KM12 = test system: KM12
EKVX = test system: EKVX
XF498 = test system: XF498
Malme-3M = test system: Malme-3M
UO-31 = test system: UO-31
SF-268 = test system: SF-268
TK-10 = test system: TK-10
DMS-114 = test system: DMS-114
A498 = test system: A498
HOP-92 = test system: HOP-92
HOP-18 = test system: HOP-18
SW-620 = test system: SW-620
SK-MEL-5 = test system: SK-MEL-5
LOX IMVI = test system: LOX IMVI
HCT-116 = test system: HCT-116
DMS-273 = test system: DMS-273
SNB-19 = test system: SNB-19
SK-MEL-2 = test system: SK-MEL-2
786-0 = test system: 786-0
HOP-62 = test system: HOP-62
NCI-H23 = test system: NCI-H23
HL-60 = test system: HL-60
UACC-62 = test system: UACC-62
CCRF-CEM = test system: CCRF-CEM
OVCAR-8 = test system: OVCAR-8
LXFL 529 = test system: LXFL 529
K562 = test system: K562
SN12C = test system: SN12C
UACC-257 = test system: UACC-257
SNB-75 = test system: SNB-75
NCI-H522 = test system: NCI-H522
ACHN = test system: ACHN
SK-MEL-28 = test system: SK-MEL-28
M19-MEL = test system: M19-MEL
RPMI-8226 = test system: RPMI-8226
HT-29 = test system: HT-29
HCC 2998 = test system: HCC 2998
SNB-78 = test system: SNB-78
Hs-578T = test system: Hs-578T
NCI-H460 = test system: NCI-H460
OVCAR-4 = test system: OVCAR-4
PC-3 = test system: PC-3
MDA-MB-231 = test system: MDA-MB-231
MCF7 = test system: MCF7
HCT-15 = test system: HCT-15
NCI/ADR-RES = test system: NCI/ADR-RES
MDA-N = test system: MDA-N
BT-549 = test system: BT-549
T47D = test system: T47D
DU-145 = test system: DU-145
CAKI-1 = test system: CAKI-1
MDA-MB-435 = test system: MDA-MB-435

**Q.** Which GI50 (SF-539) does the source give for N#CC12Cc3cc4c(cc3-c3cccc(c31)CCN2C(=O)c1ccccc1)OCO4 (configuration not stated) here?
**A.** > 100 µM (inactive)

**Q.** What about the GI50 (DLD-1) of the same compound?
**A.** > 100 µM (inactive)

**Q.** What about the GI50 (M14) of the same compound?
**A.** > 100 µM (inactive)

**Q.** And the GI50 (OVCAR-5)?
**A.** > 100 µM (inactive)

**Q.** And the GI50 (SK-OV-3)?
**A.** > 100 µM (inactive)

**Q.** What about the GI50 (A549) of the same compound?
**A.** > 100 µM (inactive)

**Q.** And the GI50 (MOLT-4)?
**A.** > 100 µM (inactive)

**Q.** What about the GI50 (RXF 393) of the same compound?
**A.** 53.1 µM (inactive)

**Q.** And the GI50 (NCI-H226)?
**A.** > 100 µM (inactive)

**Q.** What about the GI50 (COLO 205) of the same compound?
**A.** > 100 µM (inactive)

**Q.** What about the GI50 (SR) of the same compound?
**A.** > 100 µM (inactive)

**Q.** And the GI50 (SF-295)?
**A.** > 100 µM (inactive)

**Q.** What about the GI50 (KM-20L2) of the same compound?
**A.** > 100 µM (inactive)

**Q.** What about the GI50 (IGROV-1) of the same compound?
**A.** > 100 µM (inactive)

**Q.** What about the GI50 (OVCAR-3) of the same compound?
**A.** > 100 µM (inactive)

**Q.** What about the GI50 (U-251) of the same compound?
**A.** > 100 µM (inactive)

**Q.** And the GI50 (KM12)?
**A.** > 100 µM (inactive)

**Q.** And the GI50 (EKVX)?
**A.** > 100 µM (inactive)

**Q.** What about the GI50 (XF498) of the same compound?
**A.** 24.2 µM (inactive)

**Q.** And the GI50 (Malme-3M)?
**A.** > 100 µM (inactive)

**Q.** What about the GI50 (UO-31) of the same compound?
**A.** > 100 µM (inactive)

**Q.** And the GI50 (SF-268)?
**A.** > 100 µM (inactive)

**Q.** What about the GI50 (TK-10) of the same compound?
**A.** > 100 µM (inactive)

**Q.** What about the GI50 (DMS-114) of the same compound?
**A.** 83 µM (inactive)

**Q.** What about the GI50 (A498) of the same compound?
**A.** 53.3 µM (inactive)

**Q.** And the GI50 (HOP-92)?
**A.** 22.8 µM (inactive)

**Q.** What about the GI50 (HOP-18) of the same compound?
**A.** > 100 µM (inactive)

**Q.** And the GI50 (SW-620)?
**A.** > 100 µM (inactive)

**Q.** What about the GI50 (SK-MEL-5) of the same compound?
**A.** > 100 µM (inactive)

**Q.** What about the GI50 (LOX IMVI) of the same compound?
**A.** > 100 µM (inactive)

**Q.** What about the GI50 (HCT-116) of the same compound?
**A.** > 100 µM (inactive)

**Q.** What about the GI50 (DMS-273) of the same compound?
**A.** > 100 µM (inactive)

**Q.** What about the GI50 (SNB-19) of the same compound?
**A.** 68.1 µM (inactive)

**Q.** What about the GI50 (SK-MEL-2) of the same compound?
**A.** > 100 µM (inactive)

**Q.** What about the GI50 (786-0) of the same compound?
**A.** > 10 µM (inactive)

**Q.** And the GI50 (HOP-62)?
**A.** 53.8 µM (inactive)

**Q.** And the GI50 (NCI-H23)?
**A.** > 100 µM (inactive)

**Q.** And the GI50 (HL-60)?
**A.** > 100 µM (inactive)

**Q.** And the GI50 (UACC-62)?
**A.** > 100 µM (inactive)

**Q.** What about the GI50 (CCRF-CEM) of the same compound?
**A.** > 100 µM (inactive)

**Q.** What about the GI50 (OVCAR-8) of the same compound?
**A.** 65.3 µM (inactive)

**Q.** What about the GI50 (LXFL 529) of the same compound?
**A.** > 100 µM (inactive)

**Q.** What about the GI50 (K562) of the same compound?
**A.** > 100 µM (inactive)

**Q.** And the GI50 (SN12C)?
**A.** > 100 µM (inactive)

**Q.** And the GI50 (UACC-257)?
**A.** > 100 µM (inactive)

**Q.** And the GI50 (SNB-75)?
**A.** 21.6 µM (inactive)

**Q.** And the GI50 (NCI-H522)?
**A.** > 10 µM (inactive)

**Q.** What about the GI50 (ACHN) of the same compound?
**A.** > 100 µM (inactive)

**Q.** And the GI50 (SK-MEL-28)?
**A.** > 100 µM (inactive)

**Q.** And the GI50 (M19-MEL)?
**A.** > 100 µM (inactive)

**Q.** What about the GI50 (RPMI-8226) of the same compound?
**A.** > 100 µM (inactive)

**Q.** And the GI50 (HT-29)?
**A.** > 100 µM (inactive)

**Q.** And the GI50 (HCC 2998)?
**A.** > 100 µM (inactive)

**Q.** And the GI50 (SNB-78)?
**A.** 51.6 µM (inactive)

**Q.** Which results are given for O=C1C=CC(=O)c2c(O)ccc(O)c21 [NAPHTHAZALIN]?
**A.** GI50 (SF-539): 2.49 µM (inactive); GI50 (DLD-1): 0.326 µM (active); GI50 (M14): 0.581 µM (active); GI50 (OVCAR-5): 6.95 µM (inactive); GI50 (SK-OV-3): 12.7 µM (inactive); GI50 (A549): 8.95 µM (inactive); GI50 (MOLT-4): 0.15 µM (active); GI50 (RXF 393): 1.03 µM (active); GI50 (NCI-H226): 9.25 µM (inactive); GI50 (COLO 205): 0.807 µM (active); GI50 (Hs-578T): 2.17 µM (inactive); GI50 (NCI-H460): 2.47 µM (inactive); GI50 (SR): 0.222 µM (active); GI50 (SF-295): 7.91 µM (inactive); GI50 (KM-20L2): 1.84 µM (inactive); GI50 (OVCAR-4): 2.39 µM (inactive); GI50 (IGROV-1): 7.96 µM (inactive); GI50 (OVCAR-3): 2.09 µM (inactive); GI50 (U-251): 5.79 µM (inactive); GI50 (KM12): 5.25 µM (inactive); GI50 (EKVX): 2.75 µM (inactive); GI50 (XF498): 1.58 µM (inactive); GI50 (Malme-3M): 1.18 µM (inactive); GI50 (PC-3): 12.8 µM (inactive); GI50 (UO-31): 2.11 µM (inactive); GI50 (SF-268): 2.52 µM (inactive); GI50 (MDA-MB-231): 2.22 µM (inactive); GI50 (TK-10): 1.26 µM (inactive); GI50 (MCF7): 2.32 µM (inactive); GI50 (DMS-114): 1.8 µM (inactive); GI50 (A498): 2.96 µM (inactive); GI50 (HOP-92): 1.69 µM (inactive); GI50 (HOP-18): 1.16 µM (inactive); GI50 (SW-620): 0.377 µM (active); GI50 (SK-MEL-5): 2.14 µM (inactive); GI50 (LOX IMVI): 1.56 µM (inactive); GI50 (HCT-116): 0.9 µM (active); GI50 (DMS-273): 3.17 µM (inactive); GI50 (SNB-19): 8.41 µM (inactive); GI50 (HCT-15): 0.753 µM; GI50 (SK-MEL-2): 7.64 µM (inactive); GI50 (786-0): 1.14 µM (inactive); GI50 (NCI/ADR-RES): 1.92 µM (inactive); GI50 (HOP-62): 9.75 µM (inactive); GI50 (NCI-H23): 2.61 µM (inactive); GI50 (HL-60): 0.292 µM (active); GI50 (UACC-62): 1.48 µM (inactive); GI50 (MDA-N): 2.75 µM (inactive); GI50 (BT-549): 2.04 µM (inactive); GI50 (T47D): 2.07 µM (inactive); GI50 (CCRF-CEM): 0.155 µM (active); GI50 (OVCAR-8): 0.91 µM (active); GI50 (LXFL 529): 0.535 µM (active); GI50 (K562): 0.425 µM (active); GI50 (SN12C): 1.33 µM (inactive); GI50 (UACC-257): 1.07 µM (active); GI50 (SNB-75): 2.09 µM (inactive); GI50 (NCI-H522): 0.505 µM (active); GI50 (DU-145): 14.8 µM (inactive); GI50 (CAKI-1): 1.27 µM (inactive); GI50 (ACHN): 1.21 µM (inactive); GI50 (SK-MEL-28): 1.34 µM (inactive); GI50 (MDA-MB-435): 3.68 µM (inactive); GI50 (M19-MEL): 0.491 µM (active); GI50 (RPMI-8226): 0.436 µM (active); GI50 (HT-29): 2.17 µM (inactive); GI50 (HCC 2998): 4.66 µM (inactive); GI50 (SNB-78): 2.25 µM (inactive)
